Measurements reported in ChEMBL document CHEMBL1134889, “Clarification of mechanism of human sputum elastase inhibition by a new inhibitor, ONO-5046, using electrospray ionization mass spectrometry” (Bioorg Med Chem Lett, 2002).

Key:
Cavia porcellus [1] = assay: Percent inhibition effect of ONO-5046 on the increase of skin capillary permeability induced by HNE in guinea pigs in vivo on administration of 10 mg/Kg dose iv in guinea pig; format: functional
Cavia porcellus [2] = assay: Percent inhibition effect of ONO-5046 on the increase of skin capillary permeability induced by HNE in guinea pigs in vivo on administration of 3 mg/Kg dose iv in guinea pig; format: functional

**Q.** What does the source list for `CC(C)(C)C(=O)Oc1ccc(S(=O)(=O)Nc2ccccc2C(=O)NCC(=O)O)cc1`?
**A.** inhibition in vivo at 10 mg/kg (Cavia porcellus [1]): 51.8%; inhibition in vivo at 3 mg/kg (Cavia porcellus [2]): 31.7%
